Test results taken from article PMC8528861, “Structural and functional analysis of target recognition by the lymphocyte adaptor protein LNK” (Nature Communications, 2021).
Where two headings read alike, the source gives them in different places. Where a SMILES comes first, the peptide text is derived from it. [ ]: non-standard residue; d: D form. pY = N[C@@H](Cc1ccc(OP(=O)(O)O)cc1)C(=O)O

How the values were obtained:
LNK SH2 domain = molecular target: T1, LNK SH2 domain (Mus musculus, UniProt O09039); assay: SPR competition assay (immobilised IL6ST pY757 peptide); type: binding
T1 construct: DNA encoding the mouse LNK SH2 domain (residues 324–446) and an N-terminal NusA; NusA (N, cleaved yes); made in house; host or cells: E. coli (tuner (DE3), BL21(DE3) or C43)
Protocol: SH2 domains typically bind ligands with a specific preference for amino acids at the −2 to +5 positions, relative to phosphotyrosine. […] To determine the contribution of individual residues, we made a series of mutations within the JAK2 phosphopeptide, and measured their affinity for the LNK SH2 domain via a surface plasmon resonance (SPR) competition assay (Fig. 3). The LNK SH2 domain was incubated with increasing concentrations of mutant JAK2 pY813 peptides before being passed over a chip coated with an immobilised low affinity phosphopeptide derived from a site on the intracellular domain of the IL-6 receptor, IL6ST. […] The +2 residue was not mutated as the structure indicates its sidechain points towards solvent.
The LNK SH2 domain has been proposed to interact with a suite of phosphorylated sites on various signalling proteins[16]–[19],[32]. […] In addition, binding to the activation loops of JAK2 and IRK, and pY785 of JAK3 were also examined. […] Given that SH2 domains will bind to most phosphorylated sequences to some degree, in line with the literature on SH2 domains and their targets[33] we applied a threshold cut-off of 2000 nM, where an IC50 over this value indicates a physiologically irrelevant interaction.
SPR competition assays were performed on either a Biacore 4000 or 200 (GE Healthcare) in 10 mM HEPES (pH 7.4), 150 mM NaCl, 3.4 mM EDTA, 0.005% Tween 20 using a streptavidin coated chip and were regenerated in 50 mM NaOH, 1 M NaCl. A biotinylated peptide representing the IL6ST pY757 sequence was immobilised to the chip by passing over 1 μg/mL of peptide dissolved in 10 mM HEPES pH 7.4, 150 mM NaCl, 3.4 mM EDA, 0.005% Tween 20. 0.1–0.5 μM of WT LNK SH2 domain was pre-incubated with 2, 1, 0.5, 0.25, 0.125 or 0 mM phosphopeptides before being flowed over the chip for 240–720 seconds at 10–30 μL/min. Data was analysed using Prism, the response of LNK in the presence of the peptide was normalised to an LNK only control and then fitted as an IC50 curve via non-linear regression.

R387C LNK SH2 domain = molecular target: T2, R387C LNK SH2 domain (Mus musculus, UniProt O09039, R387C); assay: Thermostability assay; type: binding; conditions: for Tm: protein 100 μM, peptide five-fold molar excess, phenyl phosphate 8 mM; for delta Tm / Tm, plus phosphotyrosine: 10 mM phosphotyrosine; for delta Tm: relative to apo Tm; for Tm, plus phosphotyrosine: protein 30 μM in PBS
T2 construct: DNA encoding the mouse LNK SH2 domain (residues 324–446) and an N-terminal NusA; NusA (N, cleaved yes); made in house; host or cells: E. coli
Protocol: (§1) Using mouse SH2 domain equivalents of these variants we investigated whether the incorporation of these mutations affected protein stability by measuring their melting point (Tm).
(§2) For peptide and phenyl phosphate experiments, proteins were desalted into 100 mM NaCl, 20 mM Tris (pH 8.0), 2 mM TCEP buffer and diluted to 100 μM. Where peptides were used, a five-fold molar excess of peptide was added to each sample, in phenyl phosphate conditions concentration was 8 mM. For experiments were phosphotyrosine, proteins were diluted to 30 μM in PBS and in phosphate conditions, concentration was 10 mM. Ten mcroliter of each sample was transferred into a capillary and measured from 35 to 95 °C using a Tycho N6T (Nanotemper). Data were analyzed in Prism.

R387H LNK SH2 domain = molecular target: T3, R387H LNK SH2 domain (Mus musculus, UniProt O09039, R387H); assay: Thermostability assay; type: binding; conditions: for Tm: protein 100 μM, peptide five-fold molar excess, phenyl phosphate 8 mM; for delta Tm / Tm, plus phosphotyrosine: 10 mM phosphotyrosine; for delta Tm: relative to apo Tm; for Tm, plus phosphotyrosine: protein 30 μM in PBS
T3 construct: DNA encoding the mouse LNK SH2 domain (residues 324–446) and an N-terminal NusA; NusA (N, cleaved yes); made in house; host or cells: E. coli
Protocol: as §1, §2

WT LNK SH2 domain = molecular target: T4, WT LNK SH2 domain (Mus musculus, UniProt O09039); assay: Thermostability assay; type: binding; conditions: for Tm: protein 100 μM, peptide five-fold molar excess, phenyl phosphate 8 mM; for delta Tm / Tm, plus phosphotyrosine: 10 mM phosphotyrosine; for delta Tm: relative to apo Tm; for Tm, plus phosphotyrosine: protein 30 μM in PBS
T4 construct: DNA encoding the mouse LNK SH2 domain (residues 324–446) and an N-terminal NusA; NusA (N, cleaved yes); made in house; host or cells: E. coli (tuner (DE3), BL21(DE3) or C43)
Protocol: as §1, §2

V374M LNK SH2 domain = assay: Thermostability assay; type: binding, mouse; conditions: for Tm: protein 100 μM, peptide five-fold molar excess, phenyl phosphate 8 mM; for delta Tm / Tm, plus phosphotyrosine: 10 mM phosphotyrosine; for delta Tm: relative to apo Tm; for Tm, plus phosphotyrosine: protein 30 μM in PBS
Protocol: as §1, §2

[1] = phosphopeptide competition assay, mean of at least two technical replicates from two, three or four independent experiments, read-out: IC50

T2 sequence (O09039 324-446 R387C): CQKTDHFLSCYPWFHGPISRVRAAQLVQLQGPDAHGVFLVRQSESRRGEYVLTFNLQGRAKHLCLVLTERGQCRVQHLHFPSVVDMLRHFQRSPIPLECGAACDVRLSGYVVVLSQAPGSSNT
T4 sequence (O09039 324-446): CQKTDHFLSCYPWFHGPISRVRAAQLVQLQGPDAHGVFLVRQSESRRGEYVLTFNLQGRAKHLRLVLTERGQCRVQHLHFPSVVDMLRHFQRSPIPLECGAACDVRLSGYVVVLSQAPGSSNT
T1 sequence (O09039 324-446): as above
T3 sequence (O09039 324-446 R387H): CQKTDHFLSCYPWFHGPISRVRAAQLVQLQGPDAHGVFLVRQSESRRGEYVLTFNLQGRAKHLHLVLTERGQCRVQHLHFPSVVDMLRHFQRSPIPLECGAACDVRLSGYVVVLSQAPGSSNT

CC[C@H](C)[C@H](NC(=O)[C@H](C)N)C(=O)N[C@@H](CCC(=O)O)C(=O)N[C@H](C(=O)N[C@@H](CC(=O)O)C(=O)N[C@@H](CCCCN)C(=O)N[C@@H](CCC(=O)O)C(=O)N[C@@H](Cc1ccc(OP(=O)(O)O)cc1)C(=O)N[C@@H](Cc1ccc(O)cc1)C(=O)N[C@@H](CCCCN)C(=O)N[C@H](C(=O)N[C@@H](CCCCN)C(=O)N[C@@H](CCC(=O)O)C(=O)N1CCC[C@H]1C(=O)NCC(=O)O)C(C)C)[C@@H](C)O [JAK2 pY1007] (H-AIETDKE[pY]YKVKEPG-OH; N-terminus and C-terminus assumed)
IC50 (LNK SH2 domain; [1]): > 10 µM

CC(C)C[C@H](NC(=O)[C@H](C)NC(=O)[C@H](C)NC(=O)[C@@H](NC(=O)[C@H](CC(=O)O)NC(=O)[C@H](CCCNC(=N)N)NC(=O)[C@H](CC(C)C)NC(=O)[C@H](Cc1ccc(OP(=O)(O)O)cc1)NC(=O)[C@H](CCC(N)=O)NC(=O)CNC(=O)[C@H](CC(C)C)NC(=O)[C@@H](N)C(C)C)[C@@H](C)O)C(=O)O [MPL pY552] (H-VLGQ[pY]LRDTAAL-OH; N-terminus and C-terminus assumed)
IC50 (LNK SH2 domain): > 10 µM

CSCC[C@H](NC(=O)[C@H](CC(=O)O)NC(=O)[C@H](CCC(N)=O)NC(=O)[C@H](C)N)C(=O)N[C@@H](Cc1ccc(OP(=O)(O)O)cc1)C(=O)N[C@@H](CCCNC(=N)N)C(=O)N[C@@H](CCCNC(=N)N)C(=O)N[C@@H](CC(C)C)C(=O)N[C@@H](CCC(N)=O)C(=O)N1CCC[C@H]1C(=O)N[C@@H](CO)C(=O)N[C@@H](CS)C(=O)O [MPL pY591] (H-AQDM[pY]RRLQPSC-OH; N-terminus and C-terminus assumed)
IC50 (LNK SH2 domain; [1]): > 10 µM

CC(C)C[C@H](NC(=O)[C@@H]1CCCN1C(=O)[C@H](CC(C)C)NC(=O)[C@H](Cc1ccc(OP(=O)(O)O)cc1)NC(=O)[C@H](CO)NC(=O)[C@H](Cc1c[nH]cn1)NC(=O)[C@H](CC(N)=O)NC(=O)[C@H](C)N)C(=O)N[C@@H](CO)C(=O)N[C@@H](Cc1ccc(O)cc1)C(=O)N[C@@H](Cc1c[nH]c2ccccc12)C(=O)N[C@@H](CCC(N)=O)C(=O)O [MPL pY626] (H-ANHS[pY]LPLSYWQ-OH)
IC50 (LNK SH2 domain): 4.89 µM

CC(C)C[C@H](NC(=O)[C@@H]1CCCN1C(=O)[C@@H](N)CC(C)C)C(=O)N[C@@H](CO)C(=O)N[C@@H](Cc1ccc(OP(=O)(O)O)cc1)C(=O)N[C@@H](Cc1c[nH]c2ccccc12)C(=O)N[C@@H](CCC(N)=O)C(=O)N[C@@H](CCC(N)=O)C(=O)N1CCC[C@H]1C(=O)O [MPL pY631] (H-LPLS[pY]WQQP-OH; N-terminus and C-terminus assumed)
IC50 (LNK SH2 domain; [1]): > 10 µM

CC[C@H](C)[C@H](NC(=O)[C@H](Cc1ccc(OP(=O)(O)O)cc1)NC(=O)[C@H](CCC(=O)O)NC(=O)[C@H](Cc1c[nH]cn1)NC(=O)CN)C(=O)N[C@@H](Cc1ccc(O)cc1)C(=O)N[C@H](C(=O)N[C@@H](CC(=O)O)C(=O)N1CCC[C@H]1C(=O)O)C(C)C [PDGFR pY572] (H-GHE[pY]IYVDP-OH)
IC50 (LNK SH2 domain; [1]): 3.81 µM

O=P(O)(O)Oc1ccccc1 [Phenyl Phos, phenyl phosphate]
Tm (R387C LNK SH2 domain; replicate 1): 56.6 °C | Tm (R387C LNK SH2 domain; replicate 2): 54.9 °C | Tm (R387C LNK SH2 domain; replicate 3): 54.8 °C | Tm (R387H LNK SH2 domain; replicate 1): 55.7 °C | Tm (R387H LNK SH2 domain; replicate 2): 56.0 °C | Tm (R387H LNK SH2 domain; replicate 3): 56.2 °C | Tm (WT LNK SH2 domain; replicate 1): 60.6 °C | Tm (WT LNK SH2 domain; replicate 2): 61.6 °C | Tm (WT LNK SH2 domain; replicate 3): 60.8 °C | Tm (V374M LNK SH2 domain; replicate 1): 54.0 °C | Tm (V374M LNK SH2 domain; replicate 2): 54.3 °C | Tm (V374M LNK SH2 domain; replicate 3): 54.7 °C

N[C@@H](Cc1ccc(OP(=O)(O)O)cc1)C(=O)O [Phosphotyrosine, phosphotyrosine]
delta Tm (R387C LNK SH2 domain; replicate 1): 5.7 °C | delta Tm (R387C LNK SH2 domain; replicate 2): 6.5 °C | delta Tm (R387C LNK SH2 domain; replicate 3): 6.1 °C | delta Tm (R387C LNK SH2 domain; replicate 4): 6.2 °C | delta Tm (R387C LNK SH2 domain; replicate 5): 6.4 °C | Tm, plus phosphotyrosine (R387C LNK SH2 domain; replicate 1): 56.8 °C | Tm, plus phosphotyrosine (R387C LNK SH2 domain; replicate 2): 57.5 °C | Tm, plus phosphotyrosine (R387C LNK SH2 domain; replicate 3): 57.1 °C | Tm, plus phosphotyrosine (R387C LNK SH2 domain; replicate 4): 57.2 °C | Tm, plus phosphotyrosine (R387C LNK SH2 domain; replicate 5): 57.6 °C | delta Tm (R387H LNK SH2 domain; replicate 1): 3.9 °C | delta Tm (R387H LNK SH2 domain; replicate 2): 3.9 °C | delta Tm (R387H LNK SH2 domain; replicate 3): 3.6 °C | delta Tm (R387H LNK SH2 domain; replicate 4): 3.4 °C | delta Tm (R387H LNK SH2 domain; replicate 5): 3.5 °C | Tm, plus phosphotyrosine (R387H LNK SH2 domain; replicate 1): 55.2 °C | Tm, plus phosphotyrosine (R387H LNK SH2 domain; replicate 2): 55.2 °C | Tm, plus phosphotyrosine (R387H LNK SH2 domain; replicate 3): 54.8 °C | Tm, plus phosphotyrosine (R387H LNK SH2 domain; replicate 4): 54.9 °C | Tm, plus phosphotyrosine (R387H LNK SH2 domain; replicate 5): 55 °C | delta Tm (WT LNK SH2 domain; replicate 1): 6.6 °C | delta Tm (WT LNK SH2 domain; replicate 2): 8.1 °C | delta Tm (WT LNK SH2 domain; replicate 3): 7.6 °C | delta Tm (WT LNK SH2 domain; replicate 4): 8.1 °C | Tm, plus phosphotyrosine (WT LNK SH2 domain; replicate 1): 61.1 °C | Tm, plus phosphotyrosine (WT LNK SH2 domain; replicate 2): 61.7 °C | Tm, plus phosphotyrosine (WT LNK SH2 domain; replicate 3): 61.9 °C | Tm, plus phosphotyrosine (WT LNK SH2 domain; replicate 4): 62.5 °C | delta Tm (V374M LNK SH2 domain; replicate 1): 3.1 °C | delta Tm (V374M LNK SH2 domain; replicate 2): 3.2 °C | delta Tm (V374M LNK SH2 domain; replicate 3): 3.3 °C | delta Tm (V374M LNK SH2 domain; replicate 4): 3.2 °C | delta Tm (V374M LNK SH2 domain; replicate 5): 3.4 °C | Tm, plus phosphotyrosine (V374M LNK SH2 domain; replicate 1): 55 °C | Tm, plus phosphotyrosine (V374M LNK SH2 domain; replicate 2): 55.1 °C | Tm, plus phosphotyrosine (V374M LNK SH2 domain; replicate 3): 55.2 °C | Tm, plus phosphotyrosine (V374M LNK SH2 domain; replicate 4): 55.2 °C | Tm, plus phosphotyrosine (V374M LNK SH2 domain; replicate 5): 55.2 °C

CC(C)C[C@H](NC(=O)[C@H](CC(N)=O)NC(=O)[C@@H](NC(=O)[C@H](Cc1ccc(OP(=O)(O)O)cc1)NC(=O)[C@H](CC(=O)O)NC(=O)[C@H](CCCNC(=N)N)NC(=O)[C@@H](N)CCC(=O)O)[C@@H](C)O)C(=O)N1CCC[C@H]1C(=O)N[C@@H](CO)C(=O)O [c-FMS pY923] (H-ERD[pY]TNLPS-OH; N-terminus and C-terminus assumed)
IC50 (LNK SH2 domain; [1]): > 10 µM

CC[C@H](C)[C@H](NC(=O)[C@H](Cc1ccc(O)cc1)NC(=O)[C@@H](NC(=O)[C@H](Cc1ccc(OP(=O)(O)O)cc1)NC(=O)[C@H](CC(N)=O)NC(=O)[C@H](CC(N)=O)NC(=O)CN)C(C)C)C(=O)N[C@@H](CC(=O)O)C(=O)N1CCC[C@H]1C(=O)O [c-KIT pY568] (H-GNN[pY]VYIDP-OH)
IC50 (LNK SH2 domain; [1]): 1.93 µM
